According to patent publication US20070299091A1, “Azaindole Carboxamides” (priority 2004, published 2007):

Experiments:
D1-receptor = target: T1, D1-receptor (Sus scrofa, UniProt P50130); test: radioligand binding, D1 receptor, [3H]SCH 23390, porcine striatum membrane homogenates; conditions: porcine D1, [3H]SCH 23390; average of 2-6 experiments in triplicate
T1 construct: native membrane homogenates, obtained from porcine striatum; from tissue; host or cells: porcine striatum
Description: (§1) The biological activities of the compounds according to the invention were determined in radioligand bonding investigations. All radioligand experiments were performed according to methods described by us (Hübner, H. et al. J. Med. Chem. 2000, 43, 756-762). For the measurement of the affinities to the receptors of the D2-family membrane homogenates of Chinese hamster ovary cells (CHO cells) were used, which stably express the human D2long-, the human D2short- (Hayes, G. et al. Mol. Endocrinol. 1992, 6, 920-926), the human D3- (Sokoloff, P. et al. Eur. J. Pharmacol. 1992, 225, 331-337) or the human D4.4-receptor sub-type, (Asghari, V. J. Neurochem. 1995, 65,1157-1165) respectively. Basically the binding assays took place by incubation of the receptor homogenates with the radioligand [^3H]spiperone and the compounds under investigation in various concentrations. Determination of the affinities to the D1-receptor took place with native membrane homogenates, obtained from porcine striatum, and the D1-selective radioligands [^3H]SCH 23390.

human D2long = target: T2, human D2long (Homo sapiens, UniProt P14416); test: radioligand binding, [3H]spiperone, CHO cell membrane homogenates expressing human D2long; conditions: for Ki: human D2long, [3H]spiperon, average of 2-6 experiments in triplicate; for D3-selectivity D2long/D3: ratio of Ki values D2long/D3
T2 construct: expressed in transfected cells
Description: (§2) The biological activities of the compounds according to the invention were determined in radioligand bonding investigations. […] Mol. […] Neurochem. […] Basically the binding assays took place by incubation of the receptor homogenates with the radioligand [^3H]spiperone and the compounds under investigation in various concentrations.

human D2short = target: T3, human D2short (Homo sapiens, UniProt P14416); test: radioligand binding, [3H]spiperone, CHO cell membrane homogenates expressing human D2short; conditions: for Ki: human D2short, [3H]spiperon, average of 2-6 experiments in triplicate; for D3-selectivity D2short/D3: ratio of Ki values D2short/D3
T3 construct: expressed in transfected cells
Description: as §2

human D3 = target: T4, human D3 (Homo sapiens, UniProt P35462); test: radioligand binding, [3H]spiperone, CHO cell membrane homogenates expressing human D3; conditions: human D3, [3H]spiperon; average of 2-6 experiments in triplicate
T4 construct: expressed in transfected cells
Description: as §1

human D4.4-receptor = target: T5, human D4.4-receptor (Homo sapiens, UniProt P21917); test: radioligand binding, [3H]spiperone, CHO cell membrane homogenates expressing human D4.4; conditions: for Ki: human D4.4, [3H]spiperon, average of 2-6 experiments in triplicate; for D3-selectivity D4.4/D3: ratio of Ki values D4.4/D3
T5 construct: expressed in transfected cells
T5 sequence (P21917 1-419): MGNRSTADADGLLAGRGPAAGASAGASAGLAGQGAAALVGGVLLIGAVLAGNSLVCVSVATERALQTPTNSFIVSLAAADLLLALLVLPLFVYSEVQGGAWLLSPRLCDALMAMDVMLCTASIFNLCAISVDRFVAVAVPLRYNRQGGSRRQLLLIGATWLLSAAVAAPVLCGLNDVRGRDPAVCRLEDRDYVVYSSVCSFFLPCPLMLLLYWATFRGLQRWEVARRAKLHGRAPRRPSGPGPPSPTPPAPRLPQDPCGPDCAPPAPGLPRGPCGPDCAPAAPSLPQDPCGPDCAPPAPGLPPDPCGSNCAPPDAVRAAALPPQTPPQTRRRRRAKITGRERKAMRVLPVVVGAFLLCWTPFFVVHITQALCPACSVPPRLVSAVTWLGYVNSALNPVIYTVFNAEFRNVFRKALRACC
Description: as §2

dopamine-D3-receptor = target: T6, dopamine-D3-receptor (Homo sapiens, UniProt P35462); test: mitogenesis assay, [3H]thymidine incorporation in D3 receptor-expressing cells; assay type: cell-based; conditions: for EC50: dose-effect curve from average values of all individual trials, seven concentrations in quadruplicate; for classification of intrinsic activity at the D3-receptor: mitogenesis assay, compared with full agonist quinpirol; for agonistic activity: with reference to the maximum effect of the full agonist Quinpirol
T6 construct: expressed in transfected cells
Description: Here various concentrations of the compound under investigation were incubated with D3 receptor-expressing cells and then the receptor-mediated stimulation of the mitogenesis rate was measured by incorporation of the radioactive marker [^3H]thymidine.

5-HT1A [1] = target: T7, 5-HT1A (Sus scrofa, UniProt A0A4X1UTF5); test: radioligand binding, [3H]8-OH-DPAT, porcine cortex-membrane preparations; conditions: porcine 5-HT1A, [3H]8-OH-DPAT; average of 2 experiments in triplicate
T7 construct: we incubated porcine cortex-membrane preparations with the radioligands; from tissue; host or cells: porcine cortex
T7 sequence (A0A4X1UTF5 1-422): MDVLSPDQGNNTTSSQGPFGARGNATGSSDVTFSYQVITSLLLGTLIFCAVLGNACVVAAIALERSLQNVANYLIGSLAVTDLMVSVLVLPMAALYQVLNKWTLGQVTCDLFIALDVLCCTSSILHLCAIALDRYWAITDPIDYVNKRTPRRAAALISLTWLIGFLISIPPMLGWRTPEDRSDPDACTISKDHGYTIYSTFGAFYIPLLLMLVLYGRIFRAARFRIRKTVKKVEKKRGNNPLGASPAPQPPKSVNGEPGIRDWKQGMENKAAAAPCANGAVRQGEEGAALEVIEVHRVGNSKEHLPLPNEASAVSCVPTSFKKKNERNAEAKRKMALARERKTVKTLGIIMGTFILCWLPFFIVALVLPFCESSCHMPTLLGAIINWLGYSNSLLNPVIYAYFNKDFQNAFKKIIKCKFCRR
Description: (§3) Measurement of the bonding strengths of the compounds to the serotonin-receptor subtypes 5-HT1A and 5-HT2 was carried out according to methods described by us (Heindl, C. et al. Tetrahedron: Asymmetry 2003, 14, 3141-3152). For this we incubated porcine cortex-membrane preparations with the radioligands [^3H]8-OH-DPAT (for 5-HT1A) or [^3H]ketanserin (5-HT2) and the compounds in various concentrations. In the same way the affinity of the test compounds to the porcine α1-receptor was investigated, wherein porcine cortex-membrane preparations and the α1-selective radioligand [^3H]prazosin were used.

5-HT1A [2] = test: as above; conditions: ratio of Ki values 5-HT1A/D3
Description: as §3

5-HT2 = 5-HT2 (Sus scrofa, UniProt P50129); test: radioligand binding, [3H]ketanserin, porcine cortex-membrane preparations; conditions: for Ki: porcine 5-HT2, [3H]ketanserin, average of 2 experiments in triplicate; for D3-selectivity 5-HT2/D3: ratio of Ki values 5-HT2/D3
Description: as §3

porcine α1-receptor [3] = test: radioligand binding, [3H]prazosin, porcine cortex-membrane preparations; conditions: ratio of Ki values α1/D3
Description: as §3

porcine α1-receptor [4] = target: T8, porcine α1-receptor; test: as above; conditions: porcine α1, [3H]prazosin; average of 2 experiments in triplicate
T8 construct: Ki-values α1; other: porcine α1, [3H]prazosin; average of 2 experiments in triplicate
Description: as §3

T3 sequence (P14416 1-414 isoform P14416-2): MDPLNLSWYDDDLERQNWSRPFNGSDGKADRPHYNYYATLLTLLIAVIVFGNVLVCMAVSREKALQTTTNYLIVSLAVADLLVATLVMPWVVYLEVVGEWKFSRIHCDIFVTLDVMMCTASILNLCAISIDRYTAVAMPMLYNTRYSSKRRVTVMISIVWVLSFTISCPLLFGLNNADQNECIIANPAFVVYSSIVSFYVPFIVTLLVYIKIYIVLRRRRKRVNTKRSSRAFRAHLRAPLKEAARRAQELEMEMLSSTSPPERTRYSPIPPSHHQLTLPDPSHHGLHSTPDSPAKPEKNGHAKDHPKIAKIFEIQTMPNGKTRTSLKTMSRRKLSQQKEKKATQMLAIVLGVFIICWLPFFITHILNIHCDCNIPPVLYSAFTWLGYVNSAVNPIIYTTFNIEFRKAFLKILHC
T1 sequence (P50130 whole entry): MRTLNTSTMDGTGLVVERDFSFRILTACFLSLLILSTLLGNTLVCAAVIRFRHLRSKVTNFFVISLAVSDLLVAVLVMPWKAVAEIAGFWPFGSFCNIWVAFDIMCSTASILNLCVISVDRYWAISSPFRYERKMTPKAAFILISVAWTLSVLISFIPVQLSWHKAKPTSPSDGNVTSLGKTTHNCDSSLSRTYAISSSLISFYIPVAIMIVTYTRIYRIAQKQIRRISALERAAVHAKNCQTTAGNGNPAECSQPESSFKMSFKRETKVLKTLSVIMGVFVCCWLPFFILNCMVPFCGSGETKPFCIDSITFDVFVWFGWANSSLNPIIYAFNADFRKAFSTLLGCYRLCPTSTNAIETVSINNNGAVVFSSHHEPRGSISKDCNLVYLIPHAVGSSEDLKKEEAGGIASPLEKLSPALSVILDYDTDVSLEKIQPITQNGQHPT
T4 sequence (P35462 whole entry): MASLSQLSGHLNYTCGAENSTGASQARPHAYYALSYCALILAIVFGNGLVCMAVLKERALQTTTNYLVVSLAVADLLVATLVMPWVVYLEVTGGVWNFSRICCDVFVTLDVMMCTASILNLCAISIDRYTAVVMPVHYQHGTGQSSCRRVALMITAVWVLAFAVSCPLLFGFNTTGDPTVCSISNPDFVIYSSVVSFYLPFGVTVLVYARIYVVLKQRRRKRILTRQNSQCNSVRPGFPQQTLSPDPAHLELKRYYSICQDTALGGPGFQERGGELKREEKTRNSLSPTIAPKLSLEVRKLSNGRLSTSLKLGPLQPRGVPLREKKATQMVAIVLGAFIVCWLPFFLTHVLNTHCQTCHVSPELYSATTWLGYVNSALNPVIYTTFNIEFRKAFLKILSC
T6 sequence (P35462 whole entry): as above
Chain of 5-HT2 (P50129 whole entry): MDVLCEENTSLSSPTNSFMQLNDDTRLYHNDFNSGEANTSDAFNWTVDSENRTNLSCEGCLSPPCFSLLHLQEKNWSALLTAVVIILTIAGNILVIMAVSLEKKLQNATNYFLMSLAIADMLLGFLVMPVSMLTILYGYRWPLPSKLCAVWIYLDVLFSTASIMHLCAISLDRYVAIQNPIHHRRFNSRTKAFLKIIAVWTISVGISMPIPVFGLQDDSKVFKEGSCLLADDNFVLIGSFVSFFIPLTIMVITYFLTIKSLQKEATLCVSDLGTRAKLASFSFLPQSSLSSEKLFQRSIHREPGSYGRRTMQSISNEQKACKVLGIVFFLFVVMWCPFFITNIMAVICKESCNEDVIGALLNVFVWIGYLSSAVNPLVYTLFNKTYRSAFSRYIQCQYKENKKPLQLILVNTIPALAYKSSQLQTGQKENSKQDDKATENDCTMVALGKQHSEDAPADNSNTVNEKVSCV
T2 sequence (P14416 whole entry): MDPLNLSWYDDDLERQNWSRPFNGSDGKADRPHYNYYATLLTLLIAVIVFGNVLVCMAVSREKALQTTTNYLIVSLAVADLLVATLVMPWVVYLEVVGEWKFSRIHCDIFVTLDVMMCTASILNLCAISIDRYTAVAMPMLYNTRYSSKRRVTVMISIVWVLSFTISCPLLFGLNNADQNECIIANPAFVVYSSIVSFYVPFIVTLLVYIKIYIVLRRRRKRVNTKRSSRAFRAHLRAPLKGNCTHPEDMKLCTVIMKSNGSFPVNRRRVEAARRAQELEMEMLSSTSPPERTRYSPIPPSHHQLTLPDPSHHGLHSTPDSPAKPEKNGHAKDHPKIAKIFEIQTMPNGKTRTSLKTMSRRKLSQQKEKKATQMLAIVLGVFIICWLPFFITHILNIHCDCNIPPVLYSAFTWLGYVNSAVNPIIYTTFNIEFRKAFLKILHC

O=C(NCCCCN1CCN(c2cccc(Cl)c2Cl)CC1)c1cc2cccnc2[nH]1 [Example 3, N-(4-(4-(2,3-dichlorophenyl)piperazin-1-yl)butyl)-1H-pyrrolo[2,3-b]pyridin-2-ylcarbamide]
Ki (D1-receptor): 440 nM | Ki (human D2long): 19 nM | D3-selectivity D2long/D3 (human D2long): 150 | Ki (human D2short): 6.5 nM | D3-selectivity D2short/D3 (human D2short): 34 | Ki (human D3): 0.13 nM | Ki (human D4.4-receptor): 42 nM | D3-selectivity D4.4/D3 (human D4.4-receptor): 320 | EC50 (dopamine-D3-receptor): 1.3 nM | classification of intrinsic activity at the D3-receptor (dopamine-D3-receptor): partial agonist | agonistic activity (dopamine-D3-receptor): 41% | Ki (5-HT1A [1]): 24 nM | D3-selectivity 5-HT1A/D3 (5-HT1A [2]): 180 | Ki (5-HT2): 63 nM | D3-selectivity 5-HT2/D3 (5-HT2): 480 | D3-selectivity α1/D3 (porcine α1-receptor [3]): 28 | Ki (porcine α1-receptor [4]): 3.6 nM | melting point: 232 °C

O=C(NCCCCN1CCN(c2cccc(Cl)c2Cl)CC1)c1cc2cccnc2n1S(=O)(=O)c1ccccc1 [Example 4, N-(4-(4-(2,3-dichlorophenyl)piperazin-1-yl)butyl)-1-phenylsulfonyl-1H-pyrrolo[2,3-b]pyridin-2-ylcarbamide]
Ki (D1-receptor): 680 nM | Ki (human D2long): 68 nM | D3-selectivity D2long/D3 (human D2long): 85 | Ki (human D2short): 39 nM | D3-selectivity D2short/D3 (human D2short): 49 | Ki (human D3): 0.8 nM | Ki (human D4.4-receptor): 110 nM | D3-selectivity D4.4/D3 (human D4.4-receptor): 140 | EC50 (dopamine-D3-receptor): 2.1 nM | classification of intrinsic activity at the D3-receptor (dopamine-D3-receptor): weakly partially agonistic | agonistic activity (dopamine-D3-receptor): 16% | Ki (5-HT1A [1]): 16 nM | D3-selectivity 5-HT1A/D3 (5-HT1A [2]): 20 | Ki (5-HT2): 200 nM | D3-selectivity 5-HT2/D3 (5-HT2): 250 | D3-selectivity α1/D3 (porcine α1-receptor [3]): 26 | Ki (porcine α1-receptor [4]): 21 nM | melting point: 82 °C

COc1ccccc1N1CCN(CCCCNC(=O)c2cc3cccnc3[nH]2)CC1 [Example 1, N-(4-(4-(2-methoxyphenyl)piperazin-1-yl)butyl)-1H-pyrrolo[2,3-b]pyridin-2-ylcarbamide]
Ki (D1-receptor): 1500 nM | Ki (human D2long): 58 nM | D3-selectivity D2long/D3 (human D2long): 71 | Ki (human D2short): 42 nM | D3-selectivity D2short/D3 (human D2short): 51 | Ki (human D3): 0.82 nM | Ki (human D4.4-receptor): 32 nM | D3-selectivity D4.4/D3 (human D4.4-receptor): 39 | EC50 (dopamine-D3-receptor): 0.96 nM | classification of intrinsic activity at the D3-receptor (dopamine-D3-receptor): weakly partially agonistic | agonistic activity (dopamine-D3-receptor): 14% | Ki (5-HT1A [1]): 23 nM | D3-selectivity 5-HT1A/D3 (5-HT1A [2]): 28 | Ki (5-HT2): 340 nM | D3-selectivity α1/D3 (porcine α1-receptor [3]): 1.6 | Ki (porcine α1-receptor [4]): 1.3 nM | melting point: 117 °C

COc1ccccc1N1CCN(CCCCNC(=O)c2cc3cccnc3n2S(=O)(=O)c2ccccc2)CC1 [Example 2, N-(4-(4-(2-methoxyphenyl)piperazin-1-yl)butyl)-1-phenylsulfonyl-1H-pyrrolo[2,3-b]pyridin-2-ylcarbamide]
Ki (D1-receptor): 1300 nM | Ki (human D2long): 180 nM | D3-selectivity D2long/D3 (human D2long): 19 | Ki (human D2short): 110 nM | D3-selectivity D2short/D3 (human D2short): 12 | Ki (human D3): 9.3 nM | Ki (human D4.4-receptor): 130 nM | D3-selectivity D4.4/D3 (human D4.4-receptor): 14 | EC50 (dopamine-D3-receptor): 7.9 nM | classification of intrinsic activity at the D3-receptor (dopamine-D3-receptor): weakly partially agonistic | agonistic activity (dopamine-D3-receptor): 12% | Ki (5-HT1A [1]): 14 nM | D3-selectivity 5-HT1A/D3 (5-HT1A [2]): 1.5 | Ki (5-HT2): 1100 nM | D3-selectivity 5-HT2/D3 (5-HT2): 120 | D3-selectivity α1/D3 (porcine α1-receptor [3]): 0.49 | Ki (porcine α1-receptor [4]): 4.6 nM | melting point: 166 °C
